Assay results published in patent publication US12194036B2 (priority 2022, dated 2025).

Legend:
plasma protein = experiment: Plasma protein binding; assay type: in vitro ADME; settings: metabolite vs bupropion
[1] = Pharmacokinetics after administration of the subject combination; settings: for AUC0-12 relative to that of bupropion / Cmax relative to peak level of bupropion: metabolite vs bupropion, after the subject combination
[2] = Effect of CYP2D6 poor metabolizer status on pharmacokinetics of the tablet (Group 3); settings: compared to patients who are not CYP2D6 poor metabolizers
[3] = Food effect on pharmacokinetics of the subject combination; settings: subject combination administered with food

## C[C@H](NC(C)(C)C)[C@@H](O)c1cccc(Cl)c1 [threohydroxybupropion]
Plasma protein
  extent of protein binding compared with bupropion: about half that seen with bupropion
[1]
  AUC0-12 relative to that of bupropion: about 7 times
  Cmax relative to peak level of bupropion: about 5 times

## CC(NC(C)(C)C)C(O)c1cccc(Cl)c1 (centres unmarked) [erythrohydroxybupropion]
[1]
  AUC0-12 relative to that of bupropion: about 1.2 times
  Cmax relative to peak level of bupropion: approximately equal to

## C[C@H]1NC(C)(C)CO[C@]1(O)c1cccc(Cl)c1 [hydroxybupropion]
[1]
  AUC0-12 relative to that of bupropion: about 19 times
  Cmax relative to peak level of bupropion: approximately 14 times

## CC(NC(C)(C)C)C(=O)c1cccc(Cl)c1 (racemic) [bupropion]
[1]; human, plasma, oral
  mean elimination half-life: 15 h

## COc1ccc2c(c1)[C@]13CCCC[C@@H]1[C@H](C2)N(C)CC3 [dextromethorphan]
[2]
  plasma concentrations in CYP2D6 poor metabolizers: increases plasma concentrations
[3]
  AUC0-12 decrease with food: 14%
[1]; 8 days of subject combination in extensive metabolizers, compared to dextromethorphan given without bupropion
  increase of mean elimination half-life: approximately 3 fold
[1]; co-administered with bupropion
  pharmacokinetics at steady state (linearity): nonlinear pharmacokinetics
[1]; varying doses of bupropion (75 to 150 mg), co-administered with bupropion
  changes in AUC and Cmax at steady state with dose: less than dose-proportional changes
[1]; varying doses of dextromethorphan (30 to 60 mg), co-administered with bupropion
  changes in AUC and Cmax at steady state with dose: greater than dose-proportional changes
